Measurements published in ChEMBL document CHEMBL1770053, “Design of novel and potent cPLA2α inhibitors containing an α-methyl-2-ketothiazole as a metabolically stable serine trap” (Bioorg Med Chem Lett, 2011).

Experiments:
[1] = Inhibition of recombinant cytosolic PLA2alpha assessed as inhibition of cleavage of soluble fluorogenic substrate
[2] = Inhibition of cytosolic PLA2alpha in human differentiated HL60 cells assessed as inhibition of A23187-induced [3H]-arachidonate release; assay type: cell-based; settings: HL-60
[3] = Clearance in rat at 2 mg/kg, iv; assay type: ADME, organism-based; design: dose 2 mg/kg, route intravenous; settings: in vivo
[4] = Half life in rat plasma at 2 mg/kg, iv; assay type: ADME, organism-based; design: dose 2 mg/kg, route intravenous
Hepatocyte = assay: Intrinsic clearance in rat hepatocytes; assay type: ADME, cell-based, Liver
[5] = Volume of distribution at steady state in rat at 2 mg/kg, iv; assay type: ADME, organism-based; design: dose 2 mg/kg, route intravenous; settings: in vivo, read-out: Vdss

Row | SMILES | IC50 [1] | IC50 [2] | clearance [3] | half-life [4] | CL (Hepatocyte) | Vd [5]
1 | Cc1nc(C(=O)COc2ccc(SCCCCCc3ccccc3)cc2)sc1/C=C/C(=O)O | 4300 nM | 3000 nM | – | – | – | –
2 | O=C(COc1ccc(SCCCCCc2ccccc2)cc1)c1nc2ccccc2s1 | 1000 nM | – | – | – | – | –
3 | COc1ccc2nc(C(=O)COc3ccc(SCCCCCc4ccccc4)cc3)sc2c1 | > 10000 nM | – | – | – | – | –
4 | O=C(O)COc1ccc2nc(C(=O)COc3ccc(SCCCCCc4ccccc4)cc3)[nH]c2c1 | > 10000 nM | > 10000 nM | – | – | – | –
5 | O=C(COc1ccc(SCCCCCc2ccccc2)cc1)c1ncc[nH]1 | > 10000 nM | – | – | – | – | –
6 | O=C(O)c1ccc2oc(C(=O)COc3ccc(SCCCCCc4ccccc4)cc3)nc2c1 | 140 nM | 3600 nM | > 200 mL/min/kg | < 0.2 h | 35 µL/min | –
7 | Cc1nc(C(=O)C(C)Oc2ccc(OCCCCCc3ccccc3)cc2)sc1CCCC(=O)O (stereo unspecified) | 700 nM | 2000 nM | 10.5 mL/min/kg | 1.25 h | 10 µL/min | 0.35 L/kg
8 | O=C(COc1ccc(SCCCCCc2ccccc2)cc1)COc1ccc(C(=O)O)cc1 | 80 nM | 1500 nM | – | – | – | –
9 | Cc1nc(C(=O)C(Oc2ccc(SCCCCCc3ccccc3)cc2)C(C)C)sc1CCCC(=O)O (stereo unspecified) | 4400 nM | 5600 nM | – | – | – | –
10 | Cc1nc(C(=O)COc2ccc(SCCCCCc3ccccc3)cc2)sc1CCC(=O)O | 500 nM | 500 nM | – | – | – | –
11 | Cc1nc(C(=O)C(C)Oc2ccc(SCCCCCc3ccccc3)cc2)sc1CCCC(=O)O (stereo unspecified) | 200 nM | 700 nM | – | – | – | –
12 | Cc1nc(C(=O)C(Oc2ccc(SCCCCCc3ccccc3)cc2)c2ccccc2)sc1CCCC(=O)O (stereo unspecified) | 3600 nM | 3200 nM | – | – | – | –
13 | O=C(O)CCCc1csc(C(=O)COc2ccc(OCCCCCc3ccccc3)cc2)n1 | 2000 nM | 6000 nM | – | – | – | –
14 | CCC(Oc1ccc(SCc2ccc(Cl)cc2)cc1)C(=O)c1nc(C)c(CCCC(=O)O)s1 (stereo unspecified) | 7900 nM | – | – | – | – | –
15 | Cn1ccnc1C(=O)COc1ccc(SCCCCCc2ccccc2)cc1 | > 10000 nM | – | – | – | – | –
16 | CCCCCCCCCCS(=O)(=O)c1ccc(OCC(=O)c2nc(C)c(CCCC(=O)O)s2)cc1 | 300 nM | 200 nM | – | – | 41 µL/min | –
17 | Cc1nc(C(=O)COc2ccc(SCCCCCc3ccccc3)cc2)sc1CCCC(=O)O | 80 nM | 500 nM | 71 mL/min/kg | 0.2 h | – | 0.4 L/kg
18 | Cc1nc(C(=O)C(C)Oc2ccc(SCc3ccc(Cl)cc3)cc2)sc1CCCC(=O)O (stereo unspecified) | 1500 nM | 1500 nM | 10.5 mL/min/kg | 1.15 h | – | 0.55 L/kg
19 | O=C(O)c1ccc2nc(C(=O)COc3ccc(SCCCCCc4ccccc4)cc3)sc2c1 | 80 nM | 1600 nM | – | – | 28 µL/min | –
20 | CCCCCCCCCCSc1ccc(OCC(=O)c2nc(C)c(CCCC(=O)O)s2)cc1 | 40 nM | 230 nM | – | – | – | –
21 | Cn1c(C(=O)COc2ccc(SCCCCCc3ccccc3)cc2)nc2ccccc21 | > 10000 nM | – | – | – | – | –
22 | Cc1nc(C(=O)C(C)(C)Oc2ccc(SCCCCCc3ccccc3)cc2)sc1CCCC(=O)O | 6700 nM | > 10000 nM | – | – | – | –
23 | Cc1nc(C(=O)COc2ccc(SCCCCCc3ccccc3)cc2)sc1CCO | 280 nM | 1300 nM | – | – | 31 µL/min | –
24 | Cc1nc(C(=O)COc2ccc(SCCCCCc3ccccc3)cc2)sc1C(=O)O | 300 nM | 1100 nM | – | – | 11 µL/min | –
25 | Cc1nc(C(=O)COc2ccc(OCCCCCc3ccccc3)cc2)sc1CCCC(=O)O | 240 nM | 1200 nM | – | – | 20 µL/min | –
26 | O=C(COc1ccc(SCCCCCc2ccccc2)cc1)c1nccs1 | 1000 nM | > 10000 nM | – | – | – | –
27 | O=C(O)c1ccc2nc(C(=O)COc3ccc(SCCCCCc4ccccc4)cc3)[nH]c2c1 | 2700 nM | 3700 nM | – | – | – | –
28 | Cc1nc(C(=O)COc2ccc(SCc3ccccc3)cc2)sc1CCCC(=O)O | 3000 nM | 2000 nM | – | – | – | –
29 | Cc1nc(C(=O)[C@@H](C)Oc2ccc(SCCCCCc3ccccc3)cc2)sc1CCCC(=O)O | 200 nM | – | – | – | 8 µL/min | –
30 | Cc1nc(C(=O)[C@H](C)Oc2ccc(SCCCCCc3ccccc3)cc2)sc1CCCC(=O)O | > 1000 nM | – | – | – | – | –
